Experimental data: PMC9228270, “Design, Synthesis, In Silico Studies and Inhibitory Activity towards Bcr-Abl, BTK and FLT3-ITD of New 2,6,9-Trisubstituted Purine Derivatives as Potential Agents for the Treatment of Leukaemia” (Pharmaceutics, 2022)
“And” between values parts separate entries of the source, which are not always exact repeats. Identical values can stand only once.

How the values were obtained:
[1] = target: Bcr-Abl1 (Homo sapiens, UniProt P00519); test: Recombinant kinase radioassay, Abl; type: biochemical; details: ATP 1 µM, at least three independent experiments, range 0.01–100 µM
Bcr-Abl1, sequence (P00519 27-1130): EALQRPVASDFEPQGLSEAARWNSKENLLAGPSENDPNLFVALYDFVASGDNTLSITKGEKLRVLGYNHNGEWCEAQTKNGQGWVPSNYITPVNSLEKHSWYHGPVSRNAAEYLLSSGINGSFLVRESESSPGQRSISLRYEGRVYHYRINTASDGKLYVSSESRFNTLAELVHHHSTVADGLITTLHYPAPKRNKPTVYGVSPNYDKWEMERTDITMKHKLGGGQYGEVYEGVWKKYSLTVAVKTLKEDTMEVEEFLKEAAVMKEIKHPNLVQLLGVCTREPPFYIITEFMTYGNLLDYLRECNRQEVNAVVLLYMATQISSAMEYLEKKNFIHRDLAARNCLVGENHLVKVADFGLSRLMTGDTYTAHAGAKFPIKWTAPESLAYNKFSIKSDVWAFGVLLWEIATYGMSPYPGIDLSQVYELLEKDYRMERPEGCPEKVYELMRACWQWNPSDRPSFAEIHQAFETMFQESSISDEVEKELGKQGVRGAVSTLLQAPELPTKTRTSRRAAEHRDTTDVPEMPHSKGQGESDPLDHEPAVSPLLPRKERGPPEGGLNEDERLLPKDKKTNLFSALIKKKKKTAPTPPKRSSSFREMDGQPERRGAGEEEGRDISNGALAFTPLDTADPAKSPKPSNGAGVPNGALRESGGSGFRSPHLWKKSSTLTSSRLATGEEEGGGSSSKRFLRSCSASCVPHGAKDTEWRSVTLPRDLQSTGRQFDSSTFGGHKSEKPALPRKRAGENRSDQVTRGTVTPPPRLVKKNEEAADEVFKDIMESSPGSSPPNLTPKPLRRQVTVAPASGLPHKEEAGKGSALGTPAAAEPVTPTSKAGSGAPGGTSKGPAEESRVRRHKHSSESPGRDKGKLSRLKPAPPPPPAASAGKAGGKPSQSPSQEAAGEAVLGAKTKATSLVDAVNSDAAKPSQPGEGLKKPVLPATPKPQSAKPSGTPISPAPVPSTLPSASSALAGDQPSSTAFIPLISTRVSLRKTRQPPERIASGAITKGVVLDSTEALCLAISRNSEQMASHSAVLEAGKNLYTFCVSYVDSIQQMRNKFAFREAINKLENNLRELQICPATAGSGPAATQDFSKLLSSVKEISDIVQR
Protocol: (§1) Recombinant kinase inhibition was measured using standard radioassay. Bcr-Abl1 and Cdk-2/cyclin E kinases were produced in-house, FLT3-ITD and BTK were purchased from ProQinase. The kinases were assayed with suitable substrates (500 µM peptide […] for Abl, 1 mg/mL histone H1 for Cdk-2, 100 µM poly (Glu:Tyr; 4:1)) in the presence of ATP (1 µM for Bcr-Abl, 15 µM for Cdk-2 and BTK), 0.05 µCi [γ-^33P]ATP and the test compound in reaction buffer (60 mM HEPES-NaOH, pH 7.5, 3 mM MgCl2, 3 mM MnCl2, 3 µM Na orthovanadate, 1.2 mM DTT, 2.5 µg/50 µL PEG20.000). The reactions were stopped by adding 3% aq. H3PO4. P-81 phosphocellulose (Whatman) was used to separate phosphorylated substrates. Kinase activity was quantified using a FLA-7000 digital image analyser.

[2] = target: T1, BTK (Homo sapiens, UniProt Q06187); test: Recombinant kinase radioassay, BTK; type: biochemical; details: recombinant kinase, radioassay, ATP 15 µM; at least three independent experiments, range 0.01–100 µM; read-out: IC50 BTK
T1 construct: purchased ProQinase
T1 sequence (Q06187 whole entry): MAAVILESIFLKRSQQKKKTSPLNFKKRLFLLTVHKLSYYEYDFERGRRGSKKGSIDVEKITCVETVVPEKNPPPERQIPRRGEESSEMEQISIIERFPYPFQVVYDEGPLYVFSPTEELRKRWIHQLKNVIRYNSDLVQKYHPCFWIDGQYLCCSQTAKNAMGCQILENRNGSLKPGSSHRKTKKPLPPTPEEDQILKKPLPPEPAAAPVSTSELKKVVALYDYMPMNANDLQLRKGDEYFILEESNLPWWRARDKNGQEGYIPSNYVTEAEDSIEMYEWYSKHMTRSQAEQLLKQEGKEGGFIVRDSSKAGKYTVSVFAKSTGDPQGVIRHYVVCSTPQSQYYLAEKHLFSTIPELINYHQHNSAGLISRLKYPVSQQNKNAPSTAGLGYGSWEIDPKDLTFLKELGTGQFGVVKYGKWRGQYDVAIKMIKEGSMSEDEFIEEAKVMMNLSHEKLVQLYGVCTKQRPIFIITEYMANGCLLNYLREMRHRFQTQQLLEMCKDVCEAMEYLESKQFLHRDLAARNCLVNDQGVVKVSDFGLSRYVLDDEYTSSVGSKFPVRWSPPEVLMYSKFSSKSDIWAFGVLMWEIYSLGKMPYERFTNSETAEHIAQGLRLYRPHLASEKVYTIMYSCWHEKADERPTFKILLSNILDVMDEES
Protocol: as §1

[3] = target: T2, FLT3-ITD (Homo sapiens, UniProt P36888, ITD); test: Recombinant kinase radioassay, FLT3-ITD; type: biochemical; details: recombinant kinase, radioassay; at least three independent experiments, range 0.01–100 µM; read-out: IC50 FLT3-ITD
T2 sequence (P36888 27-993): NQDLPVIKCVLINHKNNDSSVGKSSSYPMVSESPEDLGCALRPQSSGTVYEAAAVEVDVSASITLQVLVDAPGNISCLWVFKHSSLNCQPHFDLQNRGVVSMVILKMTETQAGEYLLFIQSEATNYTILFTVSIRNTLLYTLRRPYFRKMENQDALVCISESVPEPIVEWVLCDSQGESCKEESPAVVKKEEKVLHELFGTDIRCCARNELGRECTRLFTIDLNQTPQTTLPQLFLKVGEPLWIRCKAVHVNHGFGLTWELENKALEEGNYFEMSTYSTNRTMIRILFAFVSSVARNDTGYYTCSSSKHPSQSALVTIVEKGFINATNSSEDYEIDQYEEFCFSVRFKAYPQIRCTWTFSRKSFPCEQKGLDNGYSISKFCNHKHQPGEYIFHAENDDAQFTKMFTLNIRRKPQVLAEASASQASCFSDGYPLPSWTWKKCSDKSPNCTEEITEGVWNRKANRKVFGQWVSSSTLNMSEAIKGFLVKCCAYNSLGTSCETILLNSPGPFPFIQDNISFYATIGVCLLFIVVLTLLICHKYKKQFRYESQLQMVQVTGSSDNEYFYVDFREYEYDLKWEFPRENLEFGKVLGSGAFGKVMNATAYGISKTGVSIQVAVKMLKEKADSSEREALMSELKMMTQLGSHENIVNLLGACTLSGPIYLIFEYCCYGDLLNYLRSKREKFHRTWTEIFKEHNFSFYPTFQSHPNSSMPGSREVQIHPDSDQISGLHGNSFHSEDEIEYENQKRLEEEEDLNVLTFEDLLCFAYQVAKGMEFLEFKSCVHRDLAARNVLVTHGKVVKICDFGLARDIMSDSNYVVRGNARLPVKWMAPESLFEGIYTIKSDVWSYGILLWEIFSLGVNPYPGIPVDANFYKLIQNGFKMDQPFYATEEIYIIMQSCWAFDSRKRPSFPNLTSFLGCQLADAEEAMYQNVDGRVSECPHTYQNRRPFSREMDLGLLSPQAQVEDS
Protocol: as §1

[4] = target: T3, Cdk-2/cyclin E (Homo sapiens, UniProt P24941); test: Recombinant kinase radioassay, Cdk-2/cyclin E; type: biochemical; details: ATP 15 µM, at least three independent experiments, range 0.01–100 µM
T3 construct: made in house
Protocol: as §1

[5] = test system: K562; test: Cytotoxicity assay (resazurin), K562; type: cell-based; details: Homo sapiens, 72 h, three independent experiments, range 0.1 to 25 µM
Protocol: (§2) Cytotoxicity assays for the purines were quantified using the resazurin method, a dye to measure redox reactions occurring in the mitochondria of live cells. The cells were treated by tested compounds (in triplicate, six different doses) for 72 h.

[6] = test system: HL-60; test: Cytotoxicity assay (resazurin), HL-60; type: cell-based; details: Homo sapiens, 72 h, three independent experiments, range 0.1 to 25 µM
Protocol: as §2

[7] = test system: MV4-11; test: Cytotoxicity assay (resazurin), MV4-11; type: cell-based; details: Homo sapiens, 72 h, three independent experiments, range 0.1 to 25 µM
Protocol: as §2

[8] = test system: Ramos; test: Cytotoxicity assay (resazurin), Ramos; type: cell-based; details: Homo sapiens, 72 h, three independent experiments, range 0.1 to 25 µM
Protocol: as §2

[9] = test system: CEM; test: Cytotoxicity assay (resazurin), CEM; type: cell-based; details: Homo sapiens, CCRF-CEM, 72 h, three independent experiments, range 0.1 to 25 µM
Protocol: as §2

Row | SMILES | IC50 [1] | IC50 [2] | IC50 [3] | IC50 [4] | GI50 [5] | GI50 [6] | GI50 [7] | GI50 [8] | GI50 [9] | melting point
1 | Cc1cccc(Nc2nc(Nc3ccc(N4CCN(C)CC4)cc3)nc3c2ncn3CC2CC2)c1 [Compound 4c, 9-(Cyclopropylmethyl)-N^2-(4-(4-methylpiperazin-1-yl)phenyl)-N^6-(m-tolyl)-9H-purine-2,6-diamine] | 0.1 µM | 1.3 ± 0.02 µM | 1.5 µM | 22.9 ± 2.08 µM | 2.86 ± 0.76 µM | 9.79 ± 0.87 µM | 1.42 ± 0.23 µM | 12.5 ± 0.48 µM | 16.4 ± 0.36 µM | 135 to 137 °C
2 | CCCCCCn1cnc2c(Nc3ccccc3)nc(Nc3ccc(N4CCN(C)CC4)cc3)nc21 [Compound 5g, 9-Hexyl-N^2-(4-(4-methylpiperazin-1-yl)phenyl)-N^6-phenyl-9H-purine-2,6-diamine] | 9.82 ± 1.87 µM | 0.91 ± 0.02 µM | 1.91 µM | 27.9 ± 1.04 µM | 15.5 ± 4.98 µM | 6.11 ± 0.76 µM | 4.27 ± 1.45 µM | 22.5 ± 1.23 µM | 34.7 ± 1.37 µM | 155.8 to 160 °C
3 | CN1CCN(C(=O)c2ccc(Nc3nc(Nc4ccccc4)c4ncn(CC5CC5)c4n3)cc2)CC1 [Compound 8a, (4-((9-(Cyclopropylmethyl)-6-(phenylamino)-9H-purin-2-yl)amino)phenyl)(4-methylpiperazin-1-yl)methanone] | 1.21 ± 0.11 µM | 6.01 ± 0.72 µM | 1.95 µM | 31.4 ± 3.18 µM | 8.91 ± 1.64 µM | 6.64 ± 1.42 µM | 1.24 ± 0.21 µM | 16.6 ± 0.67 µM | > 25 µM | 164 to 165 °C
4 | CN1CCN(C(=O)c2ccc(Nc3nc(Nc4ccc(F)c(F)c4)c4ncn(CC5CC5)c4n3)cc2)CC1 [Compound 8c, (4-((9-(Cyclopropylmethyl)-6-((3,4-difluorophenyl)amino)-9H-purin-2-yl)amino)phenyl)(4-methylpiperazin-1-yl)methanone] | 0.94 ± 0.22 µM | 2.73 ± 0.17 µM | 1.81 µM | 14.2 ± 1.24 µM | 6.07 ± 0.08 µM | 2.39 ± 0.89 µM | 1.52 ± 0.31 µM | 14.69 ± 0.02 µM | 20.7 ± 4.07 µM | 142 to 143 °C
5 | CN1CCN(c2ccc(Nc3nc(Nc4cccc(OC(F)(F)F)c4)c4ncn(CC5CC5)c4n3)cc2)CC1 [Compound 4e, 9-(Cyclopropylmethyl)-N^2-(4-(4-methylpiperazin-1-yl)phenyl)-N^6-(3-(trifluoromethoxy)phenyl)-9H-purine-2,6-diamine] | 0.42 ± 0.1 µM | 4.12 ± 0.9 µM | 2.32 µM | 47.7 ± 19.4 µM | 5.18 ± 1.68 µM | 1.4 ± 0.13 µM | 2.88 ± 0.01 µM | 12.84 ± 0.03 µM | 19.5 ± 0.61 µM | 161 to 162 °C
6 | CCCCCn1cnc2c(Nc3cccc(F)c3)nc(Nc3ccc(N4CCN(C)CC4)cc3)nc21 [Compound 5e, N^6-(3-Fluorophenyl)-N^2-(4-(4-methylpiperazin-1-yl)phenyl)-9-pentyl-9H-purine-2,6-diamine] | 0.65 ± 0.07 µM | < 0.58 µM and 0.36 µM | 0.5 µM | 19 ± 8.98 µM | 2.14 ± 0.8 µM | 1.31 µM | 1.31 ± 0.71 µM | 11.6 ± 1.46 µM | 19 ± 3.89 µM | 147.1 to 149.3 °C
7 | CN1CCN(c2ccc(Nc3nc(Nc4ccc(OC(F)(F)F)cc4)c4ncn(CC5CC5)c4n3)cc2)CC1 [Compound 4h, 9-(Cyclopropylmethyl)-N^2-(4-(4-methylpiperazin-1-yl)phenyl)-N^6-(4-(trifluoromethoxy)phenyl)-9H-purine-2,6-diamine] | 0.39 ± 0.08 µM | 0.6 ± 0.22 µM | 0.75 µM | 18.2 ± 2.05 µM | 2.9 ± 0.91 µM | 1.08 ± 0.31 µM | 2.45 ± 0.09 µM | 11.7 ± 2.88 µM | 15 ± 0.92 µM | 161 to 162 °C
8 | CCCCCCn1cnc2c(Nc3cccc(F)c3)nc(Nc3ccc(N4CCN(C)CC4)cc3)nc21 [Compound 5h, N^6-(3-Fluorophenyl)-9-hexyl-N^2-(4-(4-methylpiperazin-1-yl)phenyl)-9H-purine-2,6-diamine] | > 100 µM | 0.32 ± 0.01 µM | 2.31 µM | 80.8 ± 12.5 µM | 24.7 ± 0.41 µM | 8.77 ± 3.84 µM | 3.54 ± 1.53 µM | > 25 µM | > 25 µM | 147.1 to 149.9 °C
9 | CN1CCN(c2ccc(Nc3nc(Nc4ccc(Cl)c(F)c4)c4ncn(CC5CC5)c4n3)cc2)CC1 [Compound 4l, N^6-(4-Chloro-3-fluorophenyl)-9-(cyclopropylmethyl)-N^2-(4-(4-methylpiperazin-1-yl)phenyl)-9H-purine-2,6-diamine] | 0.2 ± 0.05 µM | 0.88 ± 0.19 µM | 1.03 µM | 26.6 ± 3.37 µM | 3.45 ± 1.61 µM | 3.22 ± 0.74 µM | 2.56 ± 0.64 µM | 11.2 ± 2.64 µM | 15.4 ± 0.55 µM | 149 to 150 °C
10 | CN1CCN(c2ccc(Nc3nc(Nc4cccc(Cl)c4)c4ncn(CC5CC5)c4n3)cc2)CC1 [Compound 4b, N^6-(3-Chlorophenyl)-9-(cyclopropylmethyl)-N^2-(4-(4-methylpiperazin-1-yl)phenyl)-9H-purine-2,6-diamine] | 0.12 ± 0.03 µM | 1.28 ± 0.18 µM | 1.12 µM | 20 ± 2.07 µM | 1.99 ± 0.82 µM | 1.93 ± 1.05 µM | 1.94 ± 0.16 µM | 10.6 ± 3.08 µM | 19.1 ± 1.07 µM | 152 to 153 °C
